The values below come from patent US20080064730A1, “Azine Compounds for Combating Animal Pests” (BASF Aktiengesellschaft, priority 2004, published 2008).

Holding throughout (type): in vivo
In experiment [1] the test system is Green Peach Aphid (Myzus Persicae). Kind of experiment: Green peach aphid test on dipped pepper plants. Conditions: 120 h, pepper plant leaves dipped, after 5 days, read-out: mortality in comparison with untreated controls. As for the experimental part: • The soybean bean cyst nematode culture was maintained in a greenhouse and soybean eggs and J2 larvae were obtained for testing by dislodging soybean cysts from the roots with a sieve. The cysts were broken to release the eggs and the eggs were maintained in water. The eggs hatched after 5-7 days at 28° C. To microtiter plates containing about 150 μg of compound, 80:20 acetone was added to each well and the solution was mixed to obtain the desired compound concentration. The nematode solution was added to the plate. The plates were then sealed and placed in an incubator at 27° C. and 50% (+/−2%) relative humidity. […] II Activity Against Insects II.1 Cotton Aphid (Aphis Gossypii) • The active compounds were formulated in 50:50 acetone:water and 100 ppm Kinetics surfactant. • Cotton plants at the cotyledon stage (one plant per pot) were infested by placing a heavily infested leaf from the main colony on top of each cotyledon. The aphids were allowed to transfer to the host plant overnight, and the leaf used to transfer the aphids was removed. The cotyledons were dipped in the test solution and allowed to dry. […] II.2 Green Peach Aphid (Myzus Persicae) • The active compounds were formulated in 50:50 acetone:water and 100 ppm Kinetic® surfactant. • Pepper plants in the 2nd leaf-pair stage (variety ‘California Wonder’) were infested with approximately 40 laboratory-reared aphids by placing infested leaf sections on top of the test plants. The leaf sections were removed after 24 hr. The leaves of the intact plants were dipped into gradient solutions of the test compound and allowed to dry. Test plants were maintained under fluorescent light (24 hour photoperiod) at about 25° C. and 20-40% relative humidity. […] II.3 Bean Aphid (Aphis Fabae) • The active compounds were formulated in 50:50 acetone:water and 100 ppm Kinetics surfactant. • Nasturtium plants grown in Metro mix in the 1st leaf-pair stage (variety ‘Mixed Jewle’) were infested with approximately 2-30 laboratory-reared aphids by placing infested cut plants on top of the test plants. The cut plants were removed after 24 hr. […]

For experiment [2], the system named is Cotton Aphid (Aphis Gossypii). Put plainly: Cotton aphid test on dipped cotton cotyledons. To be noted: 120 h, after 5 days, read-out: mortality in comparison with untreated controls. As for the experimental part:
(§1) • The soybean bean cyst nematode culture was maintained in a greenhouse and soybean eggs and J2 larvae were obtained for testing by dislodging soybean cysts from the roots with a sieve. The cysts were broken to release the eggs and the eggs were maintained in water. The eggs hatched after 5-7 days at 28° C. To microtiter plates containing about 150 μg of compound, 80:20 acetone was added to each well and the solution was mixed to obtain the desired compound concentration. The nematode solution was added to the plate. The plates were then sealed and placed in an incubator at 27° C. and 50% (+/−2%) relative humidity. […] II Activity Against Insects II.1 Cotton Aphid (Aphis Gossypii) • The active compounds were formulated in 50:50 acetone:water and 100 ppm Kinetics surfactant. • Cotton plants at the cotyledon stage (one plant per pot) were infested by placing a heavily infested leaf from the main colony on top of each cotyledon. The aphids were allowed to transfer to the host plant overnight, and the leaf used to transfer the aphids was removed. The cotyledons were dipped in the test solution and allowed to dry. […]

Experiment [3] relates to Root-Knot Nematode (Meloidogyne incognita). Put plainly: Root-knot nematode microtiter plate mortality test. Conditions: after 72 hours, J2 nematodes, immobility regarded as mortality, read-out: mortality compared to untreated controls. The method, then:
• Test compounds were prepared and formulated into aqueous formulations using acetone. The formulations were tested using root knot nematode (2nd instar) and soybean cyst nematode (2nd instar) as target species. I.1 Test Procedures for Root-Knot Nematode (Meloidogyne incognita): • Tomato plants (var. Bonny Best) were grown in the greenhouse in plastic tubs (4 to 6 plants per tub). The plants and soil (a 50:50 mixture of sand and “New Egypt” sandy loam) were infested with M. incognita J2 (to establish the “in-house” colony, M. incognita J2 were initially acquired from Auburn University). The plants were kept pruned and were used on an “as needed” basis. The tomato plants were kept in the cylinder containing hydroponic solution and aerated until the nematodes were no longer present in the solution (usually about 60 days). The cultures were checked daily by eluting a small volume (approximately 20 ml) from the bottom of a funnel attached to the cylinder into a small crystallizing dish and observed using a binocular dissecting scope. […] These were counted by putting 25 μl of the nematode solution into a well of an unused well of an assay plate. […] After 72 hours, the population mortality was read, whereby immobility of nematodes was regarded as mortality.

Experiment [4] concerns Soybean Cyst Nematode (Heterodera Glycine). Kind of experiment: Soybean cyst nematode microtiter plate mortality test. To be noted: after 72 hours, J2 larvae, immobility regarded as mortality, read-out: mortality compared to untreated controls. As for the experimental part: I.2 Test Procedures for Soybean Cyst Nematode (Heterodera Glycine):
as §1

Where only a bound is given, the exact number is not on record here.

For `Cl/C(=N\N=Cc1cc2ccccc2o1)c1cccs1` [Example 1], the mortality at 300 ppm in experiment [1] was greater than 75%.

As to `CS/C(=N\N=Cc1cc2ccccc2o1)c1cccs1` [Example 2], in experiment [2], the mortality at 300 ppm was greater than 75%.

As for `CO/C(=N\N=Cc1cc2ccccc2o1)c1cccs1` [Example 4], the mortality at 100 ppm in experiment [3] was greater than 95%.

Take `C/C(=N\N=Cc1cc2ccccc2o1)c1cccs1` [Example 5]: the mortality at 300 ppm in experiment [1] is greater than 75%.

As to `Cl/C(=N\N=CC=Cc1ccccc1)c1cccs1` [Example 11], in experiment [4], the mortality at 100 ppm is greater than 95%.

Take `C/C(=N\N=CC=Cc1ccccc1)c1cccs1` [Example 12]: in experiment [3], the mortality at 100 ppm was greater than 95%. The mortality at 300 ppm in experiment [1] is greater than 75%.
